Source: US20050050594A1, “Tryptophan synthase as a site of herbicide action” (priority 1999, published 2005)
Where two headings read alike, the source gives them in different places.

Columns and labels:
[1] = biological target: T1, Salmonella typhimurium tryptophan synthase holoenzyme (α2β2), TSα reaction (Salmonella typhimurium, UniProt P00929); assay: Inhibition of tryptophan synthase by the TSα reaction, microtiter kinetic coupled enzyme assay; assay type: biochemical; settings: for activity in enzyme inhibitory assays, relative to inhibitors 1-5: comparison within the series of inhibitors 1 to 5
T1 construct: made in house; host or cells: E. coli strain CB149pSTB7
T1 sequence (P00929 whole entry): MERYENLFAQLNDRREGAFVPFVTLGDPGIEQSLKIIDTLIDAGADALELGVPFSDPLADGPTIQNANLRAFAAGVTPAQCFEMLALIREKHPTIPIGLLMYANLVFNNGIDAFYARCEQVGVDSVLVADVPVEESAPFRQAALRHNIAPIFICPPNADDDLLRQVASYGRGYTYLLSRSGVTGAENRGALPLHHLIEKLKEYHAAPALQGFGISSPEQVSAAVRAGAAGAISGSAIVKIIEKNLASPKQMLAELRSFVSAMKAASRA
T1 sequence (P0A2K1 2-397, further chain): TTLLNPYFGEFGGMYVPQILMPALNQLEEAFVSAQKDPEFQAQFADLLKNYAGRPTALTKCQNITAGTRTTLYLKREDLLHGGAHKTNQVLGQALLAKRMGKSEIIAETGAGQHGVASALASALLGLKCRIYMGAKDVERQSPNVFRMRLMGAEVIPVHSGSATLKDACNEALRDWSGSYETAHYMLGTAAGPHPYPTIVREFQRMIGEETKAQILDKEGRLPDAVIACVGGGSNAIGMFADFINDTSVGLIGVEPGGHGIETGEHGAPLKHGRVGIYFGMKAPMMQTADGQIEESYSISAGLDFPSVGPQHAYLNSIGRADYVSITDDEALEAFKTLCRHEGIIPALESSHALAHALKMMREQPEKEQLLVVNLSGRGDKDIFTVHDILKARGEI
Text: Inhibitors of TS were identified by their ability to inhibit the production of glyceraldehyde-3-P by the TSα reaction of the Salmonella typhimurium holoenzyme (α2β2) in the presence of a limiting amount of indole-3-glycerolphosphate and an excess of serine
The assay was developed as a new microtiter plate kinetic enzyme assay based on the combined methods of Creighton (EurJBch 13:1-10, 1970) and Creighton and Yanofsky (JBC 241:980, 1966) with modifications. The rate of glyceraldehyde production was measured as the linear […] (spectrophotometric absorbance at 340 nm) in the presence of glyceraldehyde-3-phosphate dehydrogenase in a coupled enzyme assay.
The assay solution contained a test inhibitor compound, 50 mM Tris-Cl (pH 7.8), 6 mM sodium arsenate, 5 μg/ml pyridoxal phosphate, 0.5 mM DTT, 0.18M NaCl, 60 mM serine, 1.6 mM NAD+, 8 e.u./ml yeast glyceraldehyde-3-phosphate dehydrogenase (Sigma, Catalog #G2647; Kirschner et al., Eur J Bch, 1975, 60:513 and approximately 1.5 e.u. Salmonella TS. 100 μM IGP was added to start the reaction, which was run at 37° C. and using 300 μl per assay in a microtiter plate.
The substrate IGP was used at 1.5 to 2 times its Km concentration to enhance the likelihood of identifying weak inhibitors, binding at the substrate binding site. This approach to identifying enzyme inhibitors was novel, since an excess of all substrates, (at least 5-times the Km value of each), is conventionally used in the measurement of enzyme activity.
Potential inhibitors were evaluated by adding 100 μM inhibitor (equimolar to substrate IGP):or less, in a 1:1 dilution series down from 100 μM, until the inhibition measured was less than 15%. Reaction rates at Vmax were compared in the presence and absence of inhibitors.
In addition, some weaker inhibitors were identified following preincubation of the inhibitor with the TS assay mix for 24 hrs prior to the addition of IGP. The identifying weaker inhibitors is to aid in a quantitative structure activity relationship (QSAR) evaluation, or to identify new herbicidal inhibitor leads. The previously known inhibitor IPP was used as a standard in all tests, where the I50 for IPP was 1-2 uM.

[2] = tested on: a variety of dicotyledonous and monocotyledonous plants; assay: Postemergence greenhouse herbicidal test; assay type: in vivo; settings: for activity in herbicidal (biological) assays, relative to inhibitors 1-5: comparison within the series of inhibitors 1 to 5
Procedure: The herbicidal activity of the compounds was tested as described in the U.S. Pat. No. 5,635,449. […] In the tests, seedling plants are grown in jiffy flats for about two weeks. The test compounds are dispersed in 50/50 acetone/water mixtures containing 0.5% TWEEN®20, a polyoxyethylene sorbitan monolaurate surfactant of Atlas Chemical Industries, in sufficient quantities to provide the equivalent of about 1.0 kg to 8.0 kg per hectare of test compound when applied to the plants through a spray nozzle operating at 40 psi for a predetermined time. After spraying, the plants are placed on greenhouse benches and are cared for in the usual manner, commensurate with conventional greenhouse practices. From four to five weeks after treatment, the seedling plants are examined and rate according to the rating system set forth below.

[3] = tested on: Arabidopsis thaliana; assay: Herbicidal activity and tryptophan reversal on Arabidopsis grown on agar medium; assay type: in vivo; set-up: key: 0 - no effect; 9 - total kill; C - chlorotic seedlings 4-6 days after treatment
Procedure: In this experiment, TS inhibitors were tested on Arabidopsis thaliana grown Murashige minimal organics medium, (obtained from Life Technologies, Grand Island, N.Y.), containing 0.7% agar. Compounds were tested at different concentrations to assess their herbicidal activity.

[4] = biological target: T2, Arabidopsis TS enzyme (Arabidopsis thaliana, UniProt Q42529); assay: TSα assay with recombinant plant TSα and TSβ expressed in E. coli; assay type: biochemical; settings: inhibitor 82 uM; pAC 758 (1.5 ug) + pAC 755 (3 ug)
T2 construct: GST (N, cleaved yes); made in house; host or cells: E. coli DH5α (pGEX-2T constructs)
T2 sequence (Q42529 with tags, fused parts or gaps): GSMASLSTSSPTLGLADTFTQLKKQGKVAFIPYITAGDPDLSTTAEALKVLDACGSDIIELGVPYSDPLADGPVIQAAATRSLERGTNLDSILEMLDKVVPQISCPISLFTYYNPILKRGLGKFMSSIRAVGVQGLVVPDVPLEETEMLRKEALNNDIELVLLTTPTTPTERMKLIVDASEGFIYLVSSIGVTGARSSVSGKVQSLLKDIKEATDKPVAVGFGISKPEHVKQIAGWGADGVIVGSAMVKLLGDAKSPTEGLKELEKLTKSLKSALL
T2 sequence (P14671 with tags, fused parts or gaps partner): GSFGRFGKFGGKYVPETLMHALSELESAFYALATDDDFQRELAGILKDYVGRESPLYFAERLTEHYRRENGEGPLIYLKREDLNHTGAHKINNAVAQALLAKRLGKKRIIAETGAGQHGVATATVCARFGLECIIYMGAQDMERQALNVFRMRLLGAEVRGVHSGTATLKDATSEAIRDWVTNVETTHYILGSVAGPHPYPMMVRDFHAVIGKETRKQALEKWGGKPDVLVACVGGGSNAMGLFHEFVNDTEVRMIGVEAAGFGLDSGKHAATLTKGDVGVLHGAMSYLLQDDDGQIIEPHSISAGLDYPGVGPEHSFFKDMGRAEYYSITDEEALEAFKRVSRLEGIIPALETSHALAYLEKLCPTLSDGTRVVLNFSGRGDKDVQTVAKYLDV
Procedure: The plant TS proteins were expressed as fusion proteins with glutathione transferase (GST) to facilitate purification. After purification, the GST protein was cleaved off with thrombin as described above before the plant TS assays were performed. After thrombin cleavage, both TSα and TSβ-subunit proteins retained a Gly-Ser residue on the N-terminal of the protein in addition to the TS sequence. […]
The TSα enzyme assay was conducted as described in Example 3 for Salmonella TSα.
Specifically, phenylthiophosphonic acid compounds were used. The TSα assay conditions were as described for Salmonella TSα in Example 3 except that recombinant plant proteins were used instead of the Salmonella enzyme.

[5] = tested on: Synechocystis PCC 6803; assay: End-product reversal in Synechocystis, culture growth in liquid medium; assay type: cell-based; settings: for Culture density (%) / Culture density as A420: four days
Text: Synechocystis is a unicellular green organism that is actually a photosynthetic bacterium, with a photosynthetic system very similar to that of higher plant chloroplasts. Culture growth of Synechocystis could be inhibited by a compound of the present invention, and the growth inhibition could be prevented in the presence of tryptophan.

[6] = I50 TS, TSα reaction of Salmonella holoenzyme
[7] = I50 TS, TSα reaction of the highly purified Salmonella typhimiurium holoenzyme
[8] = post emergence greenhouse test, 4 kg/ha
[9] = inhibitor 62 μM, +tryptophan 31 μM
[10] = inhibitor 62 μM, +tryptophan 62 μM
[11] = inhibitor 125 μM, +tryptophan 31 μM
[12] = inhibitor 125 μM, +tryptophan 62 μM
[13] = inhibitor 125 μM, no tryptophan

Structure (SMILES): O=P(O)(O)C=CCCSc1ccccc1O [Compound 28, {4-[(o-hydroxyphenyl)thio]-1-butenyl}phosphonic acid]
- IC50 [1, 6]: 570 nM
- Herbicidal Activity ([2]; Postemergence application): ++++ (++++ = 80-100% injury to more than three species)
- herbicidal rating ([3]; herbicide 7.8 mM + 100 μM Trp): 0
- herbicidal rating ([3]; herbicide 7.8 mM, no Trp): 5C
- herbicidal rating ([3]; herbicide 16 mM + 100 μM Trp): 0
- herbicidal rating ([3]; herbicide 16 mM, no Trp): 5C
- herbicidal rating ([3]; herbicide 31 mM + 100 μM Trp): 0
- herbicidal rating ([3]; herbicide 31 mM, no Trp): 5C
- herbicidal rating ([3]; herbicide 63 mM + 100 μM Trp): 0
- herbicidal rating ([3]; herbicide 63 mM, no Trp): 6C
- herbicidal rating ([3]; herbicide 125 mM + 100 μM Trp): 0
- herbicidal rating ([3]; herbicide 125 mM, no Trp): 6C
- herbicidal rating ([3]; herbicide 250 mM + 100 μM Trp): 0
- herbicidal rating ([3]; herbicide 250 mM, no Trp): 6C
- herbicidal rating ([3]; herbicide 500 mM + 100 μM Trp): 0
- herbicidal rating ([3]; herbicide 500 mM, no Trp): 6C
- herbicidal rating ([3]; herbicide 1000 mM + 100 μM Trp): 0
- herbicidal rating ([3]; herbicide 1000 mM, no Trp): 6C

Structure (SMILES): O=P(O)(O)CCCCc1c[nH]c2ccccc12 [Compound 7b, Phosphonic acid, [4-(indol-3-yl)butyl]-]
- IC50 [1, 7]: 20000 nM
- IC50 ([1]; TS inhibition I50, TSα reaction, Salmonella holoenzyme, 30 min at 37° C., 100 μM IGP): 20000 nM
- Herbicidal Activity [2, 8]: weak (weak activity = maximum 20-30% injury on any species)

Structure (SMILES): O=C(Oc1ccccc1SCCCCP(=O)(O)O)c1ccccc1 [Phosphonic acid, {4-[(2-hydroxyphenyl)thio]butyl}-, benzoate (ester)]
- TSα activity, % of control [4]: 2.7 % of control
- TSα activity, relative Vmax [4]: 0.168 mOD/min
- effect of tryptophan on the growth inhibitory effects [5]: completely reversed
- Culture density (%) [5, 9]: 136%
- Culture density as A420 [5, 9]: 0.726
- Culture density (%) [5, 10]: 132%
- Culture density as A420 [5, 10]: 0.704
- Culture density (%) ([5]; inhibitor 62 μM, no tryptophan): 84%
- Culture density as A420 ([5]; inhibitor 62 μM, no tryptophan): 0.449
- Culture density (%) [5, 11]: 116%
- Culture density as A420 [5, 11]: 0.622
- Culture density (%) [5, 12]: 102%
- Culture density as A420 [5, 12]: 0.544
- Culture density (%) [5, 13]: 7%
- Culture density as A420 [5, 13]: 0.040

Structure (SMILES): O=P(O)(O)C=CCCSc1cc(Br)ccc1O [Compound 31, Phosphonic acid, {4-[(5-bromo-2-hydroxyphenyl)thio]-1-butenyl}-]
- IC50 [1, 6]: 260 nM
- Herbicidal Activity ([2]; Postemergence application): + (+ = 30-80% injury to one species)
- TSα activity, % of control [4]: 16.1 % of control
- TSα activity, relative Vmax [4]: 0.238 mOD/min

Structure (SMILES): Nc1ccccc1SCCCCP(=O)(O)O [Compound 13, 4-(2-aminophenylthio)-butylphosphonic acid]
- IC50 ([1]; TSα reaction of Salmonella holoenzyme, read-out: I50 TS): 400 nM
- activity in enzyme inhibitory assays, relative to inhibitors 1-5 [1]: weakest activity
- Herbicidal Activity ([2]; Postemergence application): + (+ = 30-80% injury to one species)
- activity in herbicidal (biological) assays, relative to inhibitors 1-5 [2]: weakest activity

Structure (SMILES): CC(C)N.CC(C)N.O=P(O)(O)C=CCCSc1ccccc1O [Inhibitor 1, 4-(2-hydroxyphenylthio)-1-butenylphosphonic acid, 1:2 salt with isopropylamine]
- activity in enzyme inhibitory assays, relative to inhibitors 1-5 [1]: highest activity
- activity in herbicidal (biological) assays, relative to inhibitors 1-5 [2]: highest activity

Structure (SMILES): O=P(O)(O)CCCc1c[nH]c2ccccc12 [Compound 7a]
- IC50 [1, 7]: 125000 nM
- Herbicidal Activity [2, 8]: inactive

Structure (SMILES): O=P(O)(O)CCCC[S+]([O-])c1ccccc1O (stereo not shown) [Compound 32, {4-[(o-hydroxyphenyl)sulfinyl]butyl}phosphonic acid]
- IC50 [1, 6]: 440 nM
- Herbicidal Activity ([2]; Postemergence application): +++ (+++ = 80-100% injury to two species)
- TSα activity, % of control [4]: 1.5 % of control
- TSα activity, relative Vmax [4]: 0.095 mOD/min
